From US20100209536A1, “Methods and Kits for Use in the Treatment and Prevention of Diseases or Conditions of the Immune System or Infectious Diseases” (The Brigham and Women's Hospital, Inc., priority 2006, published 2010)

Key:
[1] = tested on: respiratory infection in children at age 3 years; assay: Project Viva vitamin D study: risk of respiratory infection in children at age 3 years; format: in vivo, human
Excerpt: (§1) Project Viva is a prospective cohort study examining prenatal factors in relation to outcomes of pregnancy and child health. Participants were recruited at eight obstetric offices of Harvard Vanguard Medical Associates, a large multispecialty urban/suburban group practice in eastern Massachusetts. At the 1st study visit, directly after the person's initial clinical prenatal visit, we obtained informed consent, administered a brief interview, and provided a take-home self-administered questionnaire. At the 2nd study visit, at 26 to 28 weeks gestation, we again administered a brief interview and provided a questionnaire. Project Viva participants gave birth at Brigham and Women's Hospital or Beth Israel Deaconess Medical Center in Boston. Within 3 days after delivery, we interviewed the mother. We reassessed mothers and children at 6 months, 1 year, and annually thereafter. At the time of this analysis, age 3 visits were almost complete.
(§2) We obtained data directly from participants and from medical records, as detailed previously (Yunginger et al., Am. Rev. Respir. Dis. 146:888-894, 1992). Briefly, maternal diet assessment at both the 1st and 2nd visits was based on a validated 166-item semi-quantitative food frequency questionnaire (FFQ) (Fawzi et al., Ann. Epidemiol. 14:754-762, 2004). We slightly modified the FFQ for use in pregnancy from the FFQ used in the Nurses' Health Study and other cohort studies (Willett, New York: Oxford University Press; 1998). Modifications for use in pregnancy included changing the time referent, beverage section, and vitamin and supplement assessment. The FFQ used at the 1st visit reflected intakes in the 1st trimester and the time referent was “during this pregnancy.” In addition, we collected information on beverage intake during 2 specified time periods: before and after the participant learned that they were pregnant. To assess vitamin and supplement intake during the 1st trimester, we administered a separate interview that assessed dose, duration, and brand/type of multivitamin, prescribed prenatal vitamin, and supplements. The FFQ used at the 2nd visit (26 to 28 weeks of gestation) reflected intakes during the 2nd trimester; the time referent was “during the past 3 months.” The 2nd trimester instrument was the same as the 1st trimester, except that we assessed use of vitamins/supplements as part of the self-completed FFQ and we collected beverage information during the one time period.
(§3) To calculate intake of nutrients, we used the Harvard nutrient composition database (Hu, N. Engl. J. Med. 337:1491-1499, 1997). We calculated vitamin D intake for each FFQ, and the mean of these two values was the assigned exposure for each woman during pregnancy (Rifas-Shiman, Paediatr. Perinat. Epidemiol. 20:35-42, 2006). We used a similar approach for retinol and calcium intakes. For analyses based on foods rather than nutrients, we focused on milk (servings/day), the major contributor to vitamin D intake in the diet. We also examined foods with possible effects on asthma risk (McKeever et al., Am. J. Respir. Crit. Care Med. 170:725-729, 2004; Devereux et al., J. Allergy Clin. Immunol. 115:1109-1117, 2005): fruits and vegetables (servings/day) and fish (servings/week).
(§4) Finally, we examined two related outcomes: respiratory infection and eczema. We defined “respiratory infection” as a positive response to at least one of three questions on any of the annual questionnaires: “since your child was born (was 12 months old, was 2 years old), have you been told by a health professional that he/she has: (a) bronchiolitis; (b) pneumonia; (c) bronchitis, croup, or any other respiratory infection?” We defined “eczema” as a positive response to one question on any of the annual questionnaires: “have you ever been told by a health care professional that your child has eczema?”
(§5) To assess the associations between vitamin D intake and clinical outcomes, we used multiple logistic regression models. […]

[2] = tested on: cellular response to dexamethasone; settings: steroid-resistant asthmatics; cited from earlier work
any wheeze in children = assay: Project Viva vitamin D study: risk of any wheeze during the first three years of life; format: in vivo, human; settings: n=416 cases; adjusted for the 12 factors in model A
Excerpt: as §1, with “We reassessed mothers and children at 6 months, 1 year, and annually thereafter. At the time of this analysis, age 3 visits were almost complete.” left out
We obtained data directly from participants and from medical records, as detailed previously (Yunginger et al., Am. Rev. Respir. Dis. 146:888-894, 1992). Briefly, maternal diet assessment at both the 1st and 2nd visits was based on a validated 166-item semi-quantitative food frequency questionnaire (FFQ) (Fawzi et al., Ann. Epidemiol. 14:754-762, 2004). […] To assess vitamin and supplement intake during the 1st trimester, we administered a separate interview that assessed dose, duration, and brand/type of multivitamin, prescribed prenatal vitamin, and supplements. […]

[3] = tested on: recurrent wheeze in children at age 3 years; assay: Project Viva vitamin D study: maternal intake during pregnancy and risk of recurrent wheeze in children at age 3 years; format: in vivo, human
Excerpt: as §1
Exclusion criteria included multiple gestation (e.g., twins), inability to answer questions in English, plans to move out of the area before delivery, and gestational age greater than 22 completed weeks at initial prenatal clinical appointment. Additional details of recruitment and follow-up have been presented elsewhere (Yunginger et al., Am. Rev. Respir. Dis. 146:888-894, 1992). Among 2,128 delivered infants in Project Viva, we excluded 228 because of missing first and second trimester diet assessment data and an additional 37 with a gestation of less than 34 completed weeks. […] Of the remaining 1,495 infants, 76 were lost to follow-up and 225 have not yet exited the 3-year time-window, leaving an analysis sample of 1,194 participants. Human subjects committees of Harvard Pilgrim Health Care, Brigham and. Women's Hospital, and Beth Israel Deaconess Medical Center approved the study protocols.
as §2
To calculate intake of nutrients, we used the Harvard nutrient composition database (Hu, N. Engl. J. Med. 337:1491-1499, 1997). We calculated vitamin D intake for each FFQ, and the mean of these two values was the assigned exposure for each woman during pregnancy (Rifas-Shiman, Paediatr. Perinat. Epidemiol. 20:35-42, 2006). We used a similar approach for retinol and calcium intakes. For analyses based on foods rather than nutrients, we focused on milk (servings/day), the major contributor to vitamin D intake in the diet. […]

[4] = tested on: eczema in children at age 3 years; assay: Project Viva vitamin D study: risk of eczema in children at age 3 years; format: in vivo, human
Excerpt: as §1, §2, §3, §4, §5

[5] = quartile 2 (median 513 IU) vs quartile 1
[6] = quartile 3 (median 603 IU) vs quartile 1
[7] = quartile 4 (median 724 IU) vs quartile 1

Substance: vitamin D
- Effect of maternal intake on risk of respiratory infections ([1]; children at age 3 years): did not affect risk
- Odds ratio, respiratory infection, Multivariate model 1 [1, 5]: 0.73
- Odds ratio, respiratory infection, Multivariate model 2 [1, 5]: 0.74
- Odds ratio, respiratory infection, Unadjusted [1, 5]: 0.68
- Odds ratio, respiratory infection, Multivariate model 1 [1, 6]: 1.01
- Odds ratio, respiratory infection, Multivariate model 2 [1, 6]: 1.01
- Odds ratio, respiratory infection, Unadjusted [1, 6]: 0.92
- Odds ratio, respiratory infection, Multivariate model 1 [1, 7]: 0.74
- Odds ratio, respiratory infection, Multivariate model 2 [1, 7]: 0.75
- Odds ratio, respiratory infection, Unadjusted [1, 7]: 0.68
- Effect of supplementation on cellular response to dexamethasone [2]: improve the cellular response to dexamethasone
- Odds ratio, any wheeze, per 100 IU increase of maternal intake (any wheeze in children): 0.89
- Multivariate OR per 100 IU/day increase, recurrent wheeze ([3]; LMP in other seasons): 0.85
- Multivariate OR per 100 IU/day increase, recurrent wheeze ([3]; LMP in winter): 0.62
- Odds ratio, recurrent wheeze, model 2 with further control for child vitamin D intake from foods at 2 years ([3]; maternal intake quartiles, Table 2 model 2 plus child vitamin D intake from foods at 2 years): 0.34
- Odds ratio, recurrent wheeze, model 2 with further control for child use of a vitamin supplement at age 6 months ([3]; maternal intake quartiles, Table 2 model 2 plus child vitamin supplement at 6 months): 0.39
- Odds ratio, recurrent wheeze with 4+ wheezing episodes, per 100 IU increase ([3]; n=86 cases, adjusted for the 12 factors in model A): 0.79
- Odds ratio, recurrent wheeze and a doctor-diagnosis of asthma, per 100 IU increase ([3]; n=132 cases, adjusted for the 12 factors in model A): 0.82
- Odds ratio, recurrent wheeze, further adjustment for race/ethnicity and college education ([3]; per 100 IU/day maternal intake): 0.81
- Odds ratio, recurrent wheeze, per 100 IU/day, Food Only, Unadjusted ([3]; per 100 IU/day maternal intake, Food Only): 0.81
- Odds ratio, recurrent wheeze, per 100 IU/day, Supplement Only, Unadjusted ([3]; per 100 IU/day maternal intake, Supplement Only): 0.82
- Odds ratio, recurrent wheeze, per 100 IU/day, Total intake, Unadjusted ([3]; per 100 IU/day maternal intake, Total): 0.81
- Odds ratio, recurrent wheeze, per 100 IU/day, Food Only, Multivariate model A ([3]; per 100 IU/day, Food Only, adjusted for 12 factors): 0.79
- Odds ratio, recurrent wheeze, per 100 IU/day, Food Only, Multivariate model B ([3]; per 100 IU/day, Food Only, model A plus vitamin D from supplements): 0.80
- Odds ratio, recurrent wheeze, per 100 IU/day, Supplement Only, Multivariate model A ([3]; per 100 IU/day, Supplement Only, adjusted for 12 factors): 0.82
- Odds ratio, recurrent wheeze, per 100 IU/day, Supplement Only, Multivariate model B ([3]; per 100 IU/day, Supplement Only, model A plus vitamin D from foods): 0.82
- Odds ratio, recurrent wheeze, per 100 IU/day, Total, Multivariate model A ([3]; per 100 IU/day, Total, adjusted for 12 factors): 0.80
- Odds ratio, recurrent wheeze, per 100 IU/day, Total, Multivariate model C ([3]; per 100 IU/day, Total, model A plus maternal intake of calcium): 0.79
- Odds ratio, recurrent wheeze, per 100 IU/day, Total, Multivariate model D ([3]; per 100 IU/day, Total, model A plus maternal intake of retinol): 0.81
- Odds ratio, recurrent wheeze, Multivariate model 1 [3, 5]: 0.49
- Odds ratio, recurrent wheeze, Multivariate model 2 [3, 5]: 0.47
- Odds ratio, recurrent wheeze, Unadjusted ([3]; quartile 2 of maternal intake (median 513 IU, range 446-562) vs quartile 1, n = 1,194 pairs): 0.55
- Odds ratio, recurrent wheeze, Multivariate model 1 [3, 6]: 0.56
- Odds ratio, recurrent wheeze, Multivariate model 2 [3, 6]: 0.54
- Odds ratio, recurrent wheeze, Unadjusted ([3]; quartile 3 (median 603 IU, range 563-658) vs quartile 1): 0.55
- Odds ratio, recurrent wheeze, Multivariate model 1 [3, 7]: 0.41
- Odds ratio, recurrent wheeze, Multivariate model 2 [3, 7]: 0.38
- Odds ratio, recurrent wheeze, Unadjusted ([3]; quartile 4 (median 724 IU, range 659-1,145) vs quartile 1 (median 356 IU)): 0.39
- Effect of maternal intake on risk of early childhood eczema ([4]; children at age 3 years): did not affect risk
- Odds ratio, eczema, Multivariate model 1 [4, 5]: 0.88
- Odds ratio, eczema, Multivariate model 2 [4, 5]: 0.86
- Odds ratio, eczema, Unadjusted [4, 5]: 1.00
- Odds ratio, eczema, Multivariate model 1 [4, 6]: 0.94
- Odds ratio, eczema, Multivariate model 2 [4, 6]: 0.93
- Odds ratio, eczema, Unadjusted [4, 6]: 1.03
- Odds ratio, eczema, Multivariate model 1 [4, 7]: 0.95
- Odds ratio, eczema, Multivariate model 2 [4, 7]: 0.92
- Odds ratio, eczema, Unadjusted [4, 7]: 1.10
